Earlier results in PMC9328939, “A Randomized Double‐Blind Placebo‐Controlled First‐In‐Human Phase 1 Trial of TransCon PTH in Healthy Adults” (Journal of Bone and Mineral Research, 2020).

Experiments:
PTH/PTHrP receptor = settings: stated without data; no reference given; cited from earlier work
healthy volunteers = settings: sCa raised comparably to a calcium clamp (10.3 mg/dL; FECa 6.0% to 7.0%) by infusion of PTHrP(1-36); cited from earlier work
Excerpt: TransCon PTH may also positively impact hypercalciuria, a major cause of morbidity in patients with HP.

[1] = short-acting PTH(1-84); cited from earlier work
Excerpt: The TransCon PTH bone turnover data are similar to the published literature, which illustrate that continuous PTH administration is not anabolic. […] TransCon PTH did modestly and transiently increase the bone resorption marker, serum CTx, consistent with t ...

Q: Which “potency at the PTH/PTHrP receptor relative to PTH(1-34)” value (PTH/PTHrP receptor) does the source give for “PTH(1‐33): metabolite of PTH(1-34) shortened by a single amino acid; part of Free PTH (SVSEIQLMHNLGKHLNSMERVEWLRKKLQDVHN; Parathyroid hormone; UniProt P01270 32-64, looked up, fragment)” here?
A: equipotency

Q: For “PTHrP(1‐36): parathyroid hormone-related protein fragment infused in healthy volunteers in a literature study”, which FECa (healthy volunteers) is on record?
A: did not differ from normal controls

B1: PTH(1‐84): parathyroid hormone for injection, once-daily short-acting rhPTH(1-84) (protein, UniProt P01270 32-115, looked up)
Parathyroid hormone: SVSEIQLMHNLGKHLNSMERVEWLRKKLQDVHNFVALGAPLAPRDAGSQRPRKKEDNVLVESHEKSLGEADKADVNVLTKAKSQ
modifications: Parathyroid hormone
Q: For B1, which “persistent increase in CTx” value [1] is on record?
A: 200%
